What all share (format): biochemical
Assay [1] has as its target T1, JAK2 (Homo sapiens, UniProt O60674).
T1 construct: purchased Invitrogen Corporation, Carlsbad, Calif; PV4288
Kind of assay: JAK2 Inhibition Assay (Omnia kinase fluorescence peptide substrate assay). Particulars: averaged IC50 ranges; assay of Example C; 25 μM (Km app) or 1 mM ATP, 5 nM JAK2. An outline of the steps: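 5 nM JAK2 phosphorylated 10 μM Omnia Y7 peptide with ATP at 25 μM (Km app) or 1 mM, in 25 mM HEPES pH 7.4, 10 mM MgCl2, 0.01% Triton X-100, 1 mM DTT, 2% DMSO. Fluorescence (360/485 nm) was read every 50 s for 45 min. 10-point 3-fold series from 10 μM; POC versus uninhibited and background controls, 4-parameter logistic IC50.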

Assay [2] deals with T2, Human Tyk2 kinase domain (Homo sapiens, UniProt P29597).
T2 construct: comprising amino acids 886 to 1187 with 10 additional histidine residues; 10xHis (histidine tag) (C, cleaved yes); made in house
T2 sequence (P29597 886-1187): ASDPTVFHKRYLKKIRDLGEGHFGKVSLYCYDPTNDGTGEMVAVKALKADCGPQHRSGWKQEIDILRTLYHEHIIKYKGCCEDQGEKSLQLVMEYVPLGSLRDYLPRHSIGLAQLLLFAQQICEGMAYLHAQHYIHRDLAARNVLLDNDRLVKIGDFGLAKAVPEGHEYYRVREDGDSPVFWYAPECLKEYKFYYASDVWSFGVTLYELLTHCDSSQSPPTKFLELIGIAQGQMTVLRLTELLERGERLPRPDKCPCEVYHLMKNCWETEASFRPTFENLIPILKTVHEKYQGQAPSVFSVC
Kind of assay: Tyk2 Inhibition Assay (Omnia kinase fluorescence peptide substrate assay). To be noted: averaged IC50 ranges; assay of Example A; 10 μM (Km app) or 1 mM ATP, 2 nM Tyk2. The method, boiled down:
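2 nM His-tag-cleaved kinase domain (aa 886–1187) with 8 μM Omnia Y12 peptide, 10 μM (Km app) or 1 mM ATP, pH 7.4 HEPES/10 mM MgCl2, 2% DMSO. Fluorescence (ex 360/em 485 nm) every 50 s for 45 min; IC50 from 4-parameter fit of POC, top dose 10 μM.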

The target of assay [3] is T3, JAK3 (Homo sapiens, UniProt P52333).
T3 construct: purchased Invitrogen Corporation, Carlsbad, Calif; PV4080
T3 sequence (P52333 1-1124): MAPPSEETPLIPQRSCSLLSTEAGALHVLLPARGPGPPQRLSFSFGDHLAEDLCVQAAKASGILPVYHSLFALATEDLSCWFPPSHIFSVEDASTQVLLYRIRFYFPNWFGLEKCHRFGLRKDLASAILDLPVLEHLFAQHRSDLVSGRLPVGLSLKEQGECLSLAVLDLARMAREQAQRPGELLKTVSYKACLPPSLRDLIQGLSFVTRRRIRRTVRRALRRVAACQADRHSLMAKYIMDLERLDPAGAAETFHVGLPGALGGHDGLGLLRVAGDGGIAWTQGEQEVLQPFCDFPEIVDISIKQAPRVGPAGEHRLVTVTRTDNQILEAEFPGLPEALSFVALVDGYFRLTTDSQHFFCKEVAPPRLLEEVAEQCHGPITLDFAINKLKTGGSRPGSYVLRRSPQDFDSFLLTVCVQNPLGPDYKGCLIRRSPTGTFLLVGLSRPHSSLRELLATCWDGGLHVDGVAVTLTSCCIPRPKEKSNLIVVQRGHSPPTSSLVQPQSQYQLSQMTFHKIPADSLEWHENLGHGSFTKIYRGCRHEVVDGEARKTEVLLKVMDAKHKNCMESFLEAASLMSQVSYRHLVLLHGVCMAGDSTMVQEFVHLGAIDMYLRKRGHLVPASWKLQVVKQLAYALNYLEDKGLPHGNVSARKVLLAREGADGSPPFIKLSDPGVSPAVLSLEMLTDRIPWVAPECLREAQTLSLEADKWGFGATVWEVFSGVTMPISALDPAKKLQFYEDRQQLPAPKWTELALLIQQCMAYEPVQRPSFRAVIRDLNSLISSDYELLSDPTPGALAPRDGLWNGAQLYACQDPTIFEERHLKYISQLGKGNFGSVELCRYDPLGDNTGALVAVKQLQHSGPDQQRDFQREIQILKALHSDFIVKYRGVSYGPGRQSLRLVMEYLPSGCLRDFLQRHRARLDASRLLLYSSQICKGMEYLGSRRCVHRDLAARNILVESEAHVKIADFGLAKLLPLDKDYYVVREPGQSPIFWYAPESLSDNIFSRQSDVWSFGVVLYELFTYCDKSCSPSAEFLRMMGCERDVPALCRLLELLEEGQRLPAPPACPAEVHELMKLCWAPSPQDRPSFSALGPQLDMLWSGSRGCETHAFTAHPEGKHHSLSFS
Kind of assay: JAK3 Inhibition Assay (Omnia kinase fluorescence peptide substrate assay). To be noted: averaged IC50 ranges; assay of Example D; 10 μM (Km app) or 1 mM ATP, 2.5 nM JAK3. An outline of the steps: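 Kinase at 2.5 nM with 10 µM Omnia Y7 peptide and 10 µM (Km app) or 1 mM ATP in 25 mM HEPES pH 7.4, 10 mM MgCl2, 1 mM DTT, 0.01% Triton X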

Assay [4] addresses T4, JAK1 (Homo sapiens, UniProt P23458).
T4 construct: purchased Invitrogen Corporation, Carlsbad, Calif; PV4775
Kind of assay: JAK1 Inhibition Assay (Omnia kinase fluorescence peptide substrate assay). Particulars: averaged IC50 ranges; assay of Example B; 40 μM (Km app) or 1 mM ATP, 15 nM JAK1.

Each structure is given as a SMILES string.

T1 sequence (O60674 whole entry): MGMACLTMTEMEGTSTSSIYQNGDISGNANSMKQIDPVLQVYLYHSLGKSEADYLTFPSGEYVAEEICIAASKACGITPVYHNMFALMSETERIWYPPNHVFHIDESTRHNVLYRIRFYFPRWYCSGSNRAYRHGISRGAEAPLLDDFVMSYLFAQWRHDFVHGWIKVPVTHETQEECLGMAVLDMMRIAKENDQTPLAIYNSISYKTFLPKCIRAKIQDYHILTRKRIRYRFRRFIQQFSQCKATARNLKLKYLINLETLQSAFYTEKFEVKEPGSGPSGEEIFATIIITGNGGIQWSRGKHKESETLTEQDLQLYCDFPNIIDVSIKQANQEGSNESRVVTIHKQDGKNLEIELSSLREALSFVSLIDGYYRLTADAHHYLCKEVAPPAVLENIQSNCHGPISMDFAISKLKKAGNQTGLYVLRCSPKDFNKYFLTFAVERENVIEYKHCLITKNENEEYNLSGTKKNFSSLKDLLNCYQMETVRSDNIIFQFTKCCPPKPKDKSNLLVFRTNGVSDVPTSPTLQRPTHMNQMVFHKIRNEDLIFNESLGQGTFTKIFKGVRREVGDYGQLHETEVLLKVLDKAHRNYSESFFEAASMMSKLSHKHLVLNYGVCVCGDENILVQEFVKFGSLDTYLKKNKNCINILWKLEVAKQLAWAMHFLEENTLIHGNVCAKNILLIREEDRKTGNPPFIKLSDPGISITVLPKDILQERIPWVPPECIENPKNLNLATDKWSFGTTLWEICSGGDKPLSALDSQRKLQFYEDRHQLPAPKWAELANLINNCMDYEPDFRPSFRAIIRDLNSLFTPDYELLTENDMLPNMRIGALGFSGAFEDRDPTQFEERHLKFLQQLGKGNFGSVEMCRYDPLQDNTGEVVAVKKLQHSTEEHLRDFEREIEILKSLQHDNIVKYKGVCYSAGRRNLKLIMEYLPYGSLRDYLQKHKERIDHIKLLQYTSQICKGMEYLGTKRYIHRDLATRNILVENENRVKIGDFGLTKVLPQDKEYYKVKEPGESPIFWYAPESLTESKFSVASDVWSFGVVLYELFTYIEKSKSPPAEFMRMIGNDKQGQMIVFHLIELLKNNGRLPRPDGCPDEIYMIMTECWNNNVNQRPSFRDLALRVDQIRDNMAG
T4 sequence (P23458 whole entry): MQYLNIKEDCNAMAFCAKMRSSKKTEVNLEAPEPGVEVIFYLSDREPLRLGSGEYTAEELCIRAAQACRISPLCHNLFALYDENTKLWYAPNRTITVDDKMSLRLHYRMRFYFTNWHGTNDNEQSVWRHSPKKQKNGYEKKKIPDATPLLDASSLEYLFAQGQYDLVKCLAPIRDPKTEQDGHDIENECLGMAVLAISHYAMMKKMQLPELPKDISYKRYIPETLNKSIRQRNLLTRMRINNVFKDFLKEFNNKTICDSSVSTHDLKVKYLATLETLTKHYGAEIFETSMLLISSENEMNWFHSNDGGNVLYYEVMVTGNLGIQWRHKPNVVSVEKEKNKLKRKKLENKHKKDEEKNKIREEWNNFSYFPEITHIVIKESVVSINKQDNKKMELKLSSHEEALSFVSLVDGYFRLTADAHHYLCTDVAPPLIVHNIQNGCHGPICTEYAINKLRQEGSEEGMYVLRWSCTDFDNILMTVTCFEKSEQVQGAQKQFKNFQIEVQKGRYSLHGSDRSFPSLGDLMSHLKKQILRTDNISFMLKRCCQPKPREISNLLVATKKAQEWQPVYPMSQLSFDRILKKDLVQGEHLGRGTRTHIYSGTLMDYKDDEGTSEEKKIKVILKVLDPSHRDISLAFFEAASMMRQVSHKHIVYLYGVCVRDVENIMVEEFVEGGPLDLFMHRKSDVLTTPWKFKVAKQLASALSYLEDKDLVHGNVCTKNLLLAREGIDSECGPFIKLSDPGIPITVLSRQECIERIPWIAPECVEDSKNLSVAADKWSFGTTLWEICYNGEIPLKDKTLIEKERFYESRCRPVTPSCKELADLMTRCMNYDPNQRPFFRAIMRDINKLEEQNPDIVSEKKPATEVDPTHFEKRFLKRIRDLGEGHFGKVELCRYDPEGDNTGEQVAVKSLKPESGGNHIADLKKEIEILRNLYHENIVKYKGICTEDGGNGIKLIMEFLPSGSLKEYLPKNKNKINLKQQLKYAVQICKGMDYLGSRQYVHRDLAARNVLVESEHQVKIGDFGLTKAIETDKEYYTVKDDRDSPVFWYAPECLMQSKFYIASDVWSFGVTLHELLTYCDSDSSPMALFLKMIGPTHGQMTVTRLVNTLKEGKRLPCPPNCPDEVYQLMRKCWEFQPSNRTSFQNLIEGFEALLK

As usually defined, the IC50 is the concentration at which inhibition is half-maximal. Read a low IC50 as higher potency. Take `Cn1cc(-c2cc3nccn3c(-c3cnn(C4(CC#N)CCN(S(=O)(=O)C(F)(F)F)C4)c3)n2)cn1` (centres unmarked) [Example 133, 2-(3-(4-(7-(1-methyl-1H-pyrazol-4-yl)imidazo[1,2-c]pyrimidin-5-yl)-1H-pyrazol-1-yl)-1-(trifluoromethylsulfonyl)pyrrolidin-3-yl)acetonitrile]: the IC50 was 10 to 100 nM in assay [1], less than 10 nM in assay [2], 100 to 1000 nM in assay [3] and 10 to 100 nM in assay [4].
Regarding `CC(=O)N1CCC(CC#N)(n2cc(-c3nc(-c4cnn(C)c4)cc4nccn34)cn2)C1` (centres unmarked) [Example 134, 2-(1-acetyl-3-(4-(7-(1-methyl-1H-pyrazol-4-yl)imidazo[1,2-c]pyrimidin-5-yl)-1H-pyrazol-1-yl)pyrrolidin-3-yl)acetonitrile], the IC50 in assay [1] was 100 to 1000 nM; in assay [2] it was 100 to 1000 nM; in assay [3] it was more than 1000 nM; in assay [4], more than 1000 nM.
As for `Cn1cc(-c2cc3nccn3c(-c3cnn(C4(CC#N)CCN(CC(F)(F)F)C4)c3)n2)cn1` (centres unmarked) [Example 135, 2-(3-(4-(7-(1-methyl-1H-pyrazol-4-yl)imidazo[1,2-c]pyrimidin-5-yl)-1H-pyrazol-1-yl)-1-(2,2,2-trifluoroethyl)pyrrolidin-3-yl)acetonitrile], the IC50 was 10 to 100 nM in assay [1], 10 to 100 nM in assay [2], 100 to 1000 nM in assay [3] and 100 to 1000 nM in assay [4].
For `Cn1cc(-c2cc3nccn3c(-c3ccn(C4(CC#N)CN(S(=O)(=O)C5CC5)C4)c3)n2)cn1` [Example 136], the IC50 was 10 to 100 nM in assay [1], less than 10 nM in assay [2], more than 1000 nM in assay [3] and 10 to 100 nM in assay [4].
Take `CN1CCN(c2ccc(-c3cc4nccn4c(-c4cnn(C5(CC#N)CN(CC(F)(F)F)C5)c4)n3)cc2)CC1` [Example 137, 2-(3-(4-(7-(4-(4-methylpiperazin-1-yl)phenyl)imidazo[1,2-c]pyrimidin-5-yl)-1H-pyrazol-1-yl)-1-(2,2,2-trifluoroethyl)azetidin-3-yl)acetonitrile]: the IC50 is 10 to 100 nM in assay [1], less than 10 nM in assay [2], 100 to 1000 nM in assay [3] and 10 to 100 nM in assay [4].
For the compound `CN1CCN(c2ccc(-c3cc4nccn4c(-c4cnn(C5(CC#N)CN(S(=O)(=O)C(F)(F)F)C5)c4)n3)cc2)CC1` [Example 138, 2-(3-(4-(7-(4-(4-methylpiperazin-1-yl)phenyl)imidazo[1,2-c]pyrimidin-5-yl)-1H-pyrazol-1-yl)-1-(trifluoromethylsulfonyl)azetidin-3-yl)acetonitrile], the IC50 was 10 to 100 nM in assay [1], less than 10 nM in assay [2], 100 to 1000 nM in assay [3] and 10 to 100 nM in assay [4].
Regarding `Cc1ncc(-c2cc3nccn3c(-c3cnn(C4(CC#N)CN(S(=O)(=O)C(F)(F)F)C4)c3)n2)s1` [Example 139, 2-(3-(4-(7-(2-methylthiazol-5-yl)imidazo[1,2-c]pyrimidin-5-yl)-1H-pyrazol-1-yl)-1-(trifluoromethylsulfonyl)azetidin-3-yl)acetonitrile], the half-inhibitory concentration (IC50) in assay [1] was 10 to 100 nM; in assay [2] it was less than 10 nM; in assay [3], more than 1000 nM; in assay [4] it was 10 to 100 nM.
In the case of `Cc1ncc(-c2cc3nccn3c(-c3cnn(C4(CC#N)CN(S(=O)(=O)C5CC5)C4)c3)n2)s1` [Example 140, 2-(1-(cyclopropylsulfonyl)-3-(4-(7-(2-methylthiazol-5-yl)imidazo[1,2-c]pyrimidin-5-yl)-1H-pyrazol-1-yl)azetidin-3-yl)acetonitrile], the IC50 in assay [1] is 10 to 100 nM; in assay [2], less than 10 nM; in assay [3], more than 1000 nM; in assay [4], 10 to 100 nM.
As for `COc1ncc(-c2cc3nccn3c(-c3cnn(C4(CC#N)CN(S(=O)(=O)C5CC5)C4)c3)n2)cn1` [Example 141, 2-(1-(cyclopropylsulfonyl)-3-(4-(7-(2-methoxypyrimidin-5-yl)imidazo[1,2-c]pyrimidin-5-yl)-1H-pyrazol-1-yl)azetidin-3-yl)acetonitrile], the IC50 in assay [1] was 100 to 1000 nM; in assay [2] it was 10 to 100 nM; in assay [3], more than 1000 nM; in assay [4], more than 1000 nM.
Turning to `COc1ncc(-c2cc3nccn3c(-c3cnn(C4(CC#N)CN(S(=O)(=O)C(F)(F)F)C4)c3)n2)cn1` [Example 142, 2-(3-(4-(7-(2-methoxypyrimidin-5-yl)imidazo[1,2-c]pyrimidin-5-yl)-1H-pyrazol-1-yl)-1-(trifluoromethylsulfonyl)azetidin-3-yl)acetonitrile], the IC50 in assay [1] was more than 1000 nM; in assay [2], 10 to 100 nM; in assay [3] it was more than 1000 nM; in assay [4], more than 1000 nM.
On to `CS(=O)(=O)CCn1cc(-c2cc3nccn3c(-c3ccn(C4(CC#N)CN(CC(F)(F)F)C4)n3)n2)cn1` [Example 143, 2-(3-(3-(7-(1-(2-(methylsulfonyl)ethyl)-1H-pyrazol-4-yl)imidazo[1,2-c]pyrimidin-5-yl)-1H-pyrazol-1-yl)-1-(2,2,2-trifluoroethyl)azetidin-3-yl)acetonitrile], for which the IC50 was 10 to 100 nM in assay [1], less than 10 nM in assay [2], more than 1000 nM in assay [3] and 100 to 1000 nM in assay [4].
For `Cn1ccc(-c2cc3nccn3c(-c3ccn(C4(CC#N)CN(CC(F)(F)F)C4)n3)n2)cc1=O` [Example 144, 2-(3-(3-(7-(1-methyl-2-oxo-1,2-dihydropyridin-4-yl)imidazo[1,2-c]pyrimidin-5-yl)-1H-pyrazol-1-yl)-1-(2,2,2-trifluoroethyl)azetidin-3-yl)acetonitrile], the IC50 is 100 to 1000 nM in assay [1], 10 to 100 nM in assay [2], more than 1000 nM in assay [3] and more than 1000 nM in assay [4].
With `Cn1cc(-c2cc3nccn3c(-c3ccn(C4(CC#N)CN(CC(F)(F)F)C4)n3)n2)ccc1=O` [Example 145, 2-(3-(3-(7-(1-methyl-6-oxo-1,6-dihydropyridin-3-yl)imidazo[1,2-c]pyrimidin-5-yl)-1H-pyrazol-1-yl)-1-(2,2,2-trifluoroethyl)azetidin-3-yl)acetonitrile], the IC50 is 10 to 100 nM in assay [1], less than 10 nM in assay [2], more than 1000 nM in assay [3] and 100 to 1000 nM in assay [4].
For the compound `N#CCC1(n2cc(-c3nc(-c4ccc(C(F)(F)F)cc4)cc4nccn34)cn2)CN(S(=O)(=O)C(F)(F)F)C1` [Example 146, 2-(3-(4-(7-(4-(trifluoromethyl)phenyl)imidazo[1,2-c]pyrimidin-5-yl)-1H-pyrazol-1-yl)-1-(trifluoromethylsulfonyl)azetidin-3-yl)acetonitrile], the IC50 in assay [1] is 100 to 1000 nM; in assay [2], less than 10 nM; in assay [3], more than 1000 nM; in assay [4], 10 to 100 nM.

(Values after US8962596B2 (Array BioPharma Inc., priority 2010, dated 2015).)
